Read-outs that look alike come from different tables or passages of the source.
How the values were obtained:
[1] = system: E. coli CSH(RE45); assay: microbe, parasite or virus in culture; type: cell-based; settings: 10^6 CFU/ml; for MIC: Escherichia coli, 16 h, read-out: Minimum Inhibitory Concentration (MIC), *E. coli CSH(RE45), lactamase-producing strain
Summary of the method: (§1)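 Overnight Mueller Hinton broth cultures were inoculated onto Mueller Hinton agar containing serial antibiotic concentrations at 10^6 CFU/ml. Plates were incubated at 37° C. for 16 hours, and MIC (μg/ml) was recorded.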

[2] = system: E. coli CSH2 (RK1); assay: microbe, parasite or virus in culture; type: cell-based; settings: 10^6 CFU/ml; for MIC: Escherichia coli, 16 h, read-out: Minimum Inhibitory Concentration (MIC), *E. coli CSH2 (RK1), lactamase-producing strain
Summary of the method: as §1

[3] = system: A. calcoaceticus No. 4; assay: in vitro antibacterial activity, agar plate dilution method (MIC); type: cell-based, Acinetobacter calcoaceticus; settings: Acinetobacter calcoaceticus, NO.4, 16 h, 10^6 CFU/ml
Summary of the method: as §1

[4] = system: M. morganii GN5407; assay: as above; type: cell-based; settings: 10^6 CFU/ml; for MIC: Morganella morganii, GN5407, 16 h, read-out: Minimum Inhibitory Concentration (MIC), *M. morganii GN5407, lactamase-producing strain
Summary of the method: as §1

[5] = system: S. aureus 209P NIHJ-JC1; assay: as above; type: cell-based; settings: Staphylococcus aureus, 16 h
Summary of the method: as §1

[6] = system: E. cloacae Nek 39; assay: as above; type: cell-based; settings: Enterobacter cloacae, NEK39, 16 h, read-out: Minimum Inhibitory Concentration (MIC), *E. cloacae Nek 39, lactamase-producing strain; 10^6 CFU/ml
Summary of the method: as §1

[7] = system: S. marcescens IAM 1184; assay: as above; type: cell-based; settings: Serratia marcescens, IAM1184, 16 h, read-out: Minimum Inhibitory Concentration (MIC)
Summary of the method: as §1

[8] = system: K. pneumoniae PCI-602; assay: as above; type: cell-based; settings: Klebsiella pneumoniae, PCI602, 16 h, 10^6 CFU/ml
Summary of the method: as §1

[9] = system: K. pneumoniae No. 42; assay: as above; type: cell-based; settings: Klebsiella pneumoniae, NO.42, 16 h, read-out: Minimum Inhibitory Concentration (MIC), *K. pneumoniae No. 42, lactamase-producing strain; 10^6 CFU/ml
Summary of the method: as §1

[10] = system: E. cloacae 963; assay: as above; type: cell-based; settings: 10^6 CFU/ml
Summary of the method: as §1

[11] = system: P. vulgaris HX-19; assay: as above; type: cell-based; settings: for MIC: Proteus vulgaris, HX19, 16 h, read-out: Minimum Inhibitory Concentration (MIC)
Summary of the method: as §1

[12] = system: E. coli GN5482; assay: as above; type: cell-based; settings: Escherichia coli, GN5482, 16 h
Summary of the method: as §1

[13] = system: S. marcescens No. 16-2; assay: as above; type: cell-based; settings: Serratia marcescens, NO.162, 16 h
Summary of the method: as §1

[14] = system: E. coli NIHJ JC2; assay: as above; type: cell-based; settings: Escherichia coli, NIHJJC2, 16 h, read-out: Minimum Inhibitory Concentration (MIC), E. coli NIHJ JC2, 10^6 CFU/ml, 37° C.
Summary of the method: as §1

[15] = system: K. oxytoca GN10650; assay: as above; type: cell-based; settings: Klebsiella oxytoca, GN10650, 16 h, read-out: Minimum Inhibitory Concentration (MIC), *K. oxytoca GN10650, lactamase-producing strain; 10^6 CFU/ml
Summary of the method: as §1

[16] = system: P. vulgaris No. 33; assay: as above; type: cell-based; settings: 10^6 CFU/ml; for MIC: Proteus vulgaris, NO.33, 16 h, read-out: Minimum Inhibitory Concentration (MIC), *P. vulgaris No. 33, lactamase-producing strain
Summary of the method: as §1

[17] = system: Ps. aeruginosa IF03445; assay: as above; type: cell-based, Pseudomonas aeruginosa; settings: Pseudomonas aeruginosa, 10^6 CFU/ml
Summary of the method: as §1

[18] = system: Ps. aeruginosa AK 109; assay: as above; type: cell-based, Pseudomonas aeruginosa; settings: Pseudomonas aeruginosa, AK109, 16 h
Summary of the method: as §1

[19] = system: Ps. aeruginosa AKR17; assay: as above; type: cell-based, Pseudomonas aeruginosa; settings: Pseudomonas aeruginosa, 10^6 CFU/ml
Summary of the method: as §1

[20] = system: Ps. cepacia 23; assay: as above; type: cell-based, Pseudomonas cepacia; settings: read-out: Minimum Inhibitory Concentration (MIC)
Summary of the method: as §1

[21] = A. calcoaceticus No. 4, read-out: Minimum Inhibitory Concentration (MIC)
[22] = read-out: Minimum Inhibitory Concentration (MIC), K. pneumoniae PCI-602
[23] = Enterobacter cloacae, 963, 16 h, read-out: Minimum Inhibitory Concentration (MIC), E. cloacae 963
[24] = read-out: Minimum Inhibitory Concentration (MIC)
[25] = 16 h, Ps. aeruginosa IF03445, read-out: Minimum Inhibitory Concentration (MIC)
[26] = Ps. aeruginosa AK 109, 10^6 CFU/ml, read-out: Minimum Inhibitory Concentration (MIC)
[27] = 16 h, Ps. aeruginosa AKR17, read-out: Minimum Inhibitory Concentration (MIC)
[28] = read-out: Minimum Inhibitory Concentration (MIC), A. calcoaceticus No. 4
[29] = S. marcescens IAM 1184, 10^6 CFU/ml
[30] = Enterobacter cloacae, 16 h, E. cloacae 963, read-out: Minimum Inhibitory Concentration (MIC)
[31] = read-out: Minimum Inhibitory Concentration (MIC), *S. marcescens No. 16-2, lactamase-producing strain, 10^6 CFU/ml
[32] = IF03445, 16 h, read-out: Minimum Inhibitory Concentration (MIC), Ps. aeruginosa IF03445
[33] = Burkholderia cepacia, 16 h, Ps. cepacia 23, 10^6 CFU/ml
[34] = read-out: Minimum Inhibitory Concentration (MIC), S. aureus 209P NIHJ-JC1, 10^6 CFU/ml, 37° C., 16 hours
[35] = read-out: Minimum Inhibitory Concentration (MIC), *E. coli GN5482, lactamase-producing strain, 10^6 CFU/ml

Compound | MIC [1] [mg/L] | MIC [2] [mg/L] | MIC [3, 21] [mg/L] | MIC [4] [mg/L] | MIC [6] [mg/L] | MIC [8, 22] [mg/L] | MIC [9] [mg/L] | MIC [10, 23] [mg/L] | MIC ([11]; P. vulgaris HX-19, 10^6 CFU/ml) [mg/L] | MIC [12, 24] [mg/L] | MIC [14] [mg/L] | MIC [15] [mg/L] | MIC [16] [mg/L] | MIC [18, 26] [mg/L] | MIC [19, 27] [mg/L] | MIC [3, 28] [mg/L] | MIC [7, 29] [mg/L] | MIC [13, 31] [mg/L] | MIC [17, 32] [mg/L] | MIC [20, 33] [mg/L] | other results
CO/N=C(\C(=O)N[C@@H]1C(=O)N2C(C(=O)O)=C(CSc3nc(-c4ccccc4)cs3)CS[C@H]12)c1csc(N)n1 [compound 9, sodium 7μ-[2-(2-aminothiazol-4-yl)-2-methoxyiminoacetamido]-3-(4-phenylthiazol-2-yl)-thiomethyl-3-cephem-4-carboxylate, reference compound] | 0.78 | 0.39 | 25 | 0.78 | 3.12 | < 0.006 | 1.56 | 1.56 | < 0.006 | 0.39 | 0.78 | 3.12 | 0.78 | 25 | > 100 | – | – | – | – | – | MIC ([5]; S. aureus 209P NIHJ-JC1, 10^6 CFU/ml, 37° C., 16 hours, read-out: Minimum Inhibitory Concentration (MIC)): 0.1 mg/L; MIC [7]: 0.39 mg/L; MIC [13, 24]: 3.12 mg/L; MIC [17, 25]: 25 mg/L; MIC ([20]; Burkholderia cepacia, 23, 16 h): 3.12 mg/L
CCON=C(C(=O)NC1C(=O)N2C(C(=O)O)=C(CSc3nc(C(=O)O)c(-c4ccc(O)c(O)c4)s3)CSC12)c1csc(N)n1 (stereo not drawn) [compound 53, disodium 7β-[2-(2-aminothiazol-4-yl)-2-ethoxyiminoacetamido]-3-[4-carboxylate-5-(3,4-dihydroxyphenyl)thiazol-2-yl]thiomethyl-3-cephem-4-carboxylate] | 0.025 | 0.0125 | – | 0.05 | 0.39 | < 0.006 | 0.1 | – | – | 3.12 | 0.78 | 3.12 | 0.025 | – | 50 | 0.39 | 0.05 | 6.25 | 3.12 | 0.025 | MIC [5, 24]: 12.5 mg/L; MIC [10, 30]: 0.1 mg/L; MIC [11]: 0.0125 mg/L; MIC [18, 24]: 3.12 mg/L
Nc1nc(/C(=N/OC(C(=O)O)c2ccccc2)C(=O)N[C@@H]2C(=O)N3C(C(=O)O)=C(CSc4nnc(-c5ccc(O)c(O)c5)o4)CS[C@H]23)cs1 (single isomer, unassigned) [Example 24 DA, disodium 78-[2-(2-aminothiazol-4-yl)-2-(α-carboxylatebenzyloxyimino)acetamido]-3-[5-(3,4-dihydroxyphenyl)-1,3,4-oxadiazol-2-yl]-thiomethyl-3-cephem-4-carboxylate] | – | – | 0.05 | – | 0.025 | < 0.006 | 0.0125 | 0.05 | – | 0.39 | 0.2 | 0.0125 | – | 0.1 | – | – | 0.025 | 0.78 | 0.78 | < 0.006 | Minimum Inhibitory Concentration (MIC) ([1]; *E. coli CSH(RE45), lactamase-producing strain): < 0.006 mg/L; Minimum Inhibitory Concentration (MIC) ([2]; *E. coli CSH2 (RK1), lactamase-producing strain): < 0.006 mg/L; Minimum Inhibitory Concentration (MIC) ([4]; *M. morganii GN5407, lactamase-producing strain): 0.025 mg/L; MIC [5, 24]: 12.5 mg/L; Minimum Inhibitory Concentration (MIC) ([11]; P. vulgaris HX-19, 10^6 CFU/ml): < 0.006 mg/L; Minimum Inhibitory Concentration (MIC) ([16]; *P. vulgaris No. 33, lactamase-producing strain): 0.0125 mg/L; MIC ([19]; AKR17, 16 h, read-out: Minimum Inhibitory Concentration (MIC), Ps. aeruginosa AKR17): 0.78 mg/L
CC(C)ON=C(C(=O)NC1C(=O)N2C(C(=O)O)=C(CSc3nc(-c4ccc(O)c(O)c4)cs3)CSC12)c1csc(N)n1 (stereo not drawn) [Ex. 41, sodium 7β-[2-(2-aminothiazol-4-yl)-2-isooropoxyiminoacetamido]-3-[4-(3,4-dihydroxyphenyl)-thiazol-2-yl]thiomethyl-3-cechem-4-carboxylate] | < 0.006 | 0.0125 | – | 0.05 | 0.2 | < 0.006 | 0.1 | – | 0.025 | – | 0.2 | 0.39 | 0.05 | – | 50 | 0.39 | 0.05 | 6.25 | 0.78 | 0.05 | MIC [5, 34]: 1.56 mg/L; MIC [10, 30]: 0.1 mg/L; MIC [12, 35]: 0.78 mg/L; MIC [18, 24]: 0.39 mg/L
CO/N=C(\C(=O)N[C@@H]1C(=O)N2C(C(=O)O)=C(CSc3ncc(-c4ccccc4)o3)CS[C@H]12)c1csc(N)n1 [compound 21, sodium 7β-[2-(2-aminothiazol-4-yl)-2methoxyiminoacetamido]-3-(5-phenyloxazol-2-yl)thiomethyl-3-cephem-4-carboxylate, reference compound] | 1.56 | 0.78 | – | 1.56 | 6.25 | – | 3.12 | 3.12 | 0.0125 | – | 1.56 | 12.5 | 0.78 | 50 | > 100 | 12.5 | – | 6.25 | – | – | MIC [5, 24]: 0.39 mg/L; MIC [7]: 0.78 mg/L; MIC ([8]; K. pneumoniae PCI-602, read-out: Minimum Inhibitory Concentration (MIC)): 0.0125 mg/L; MIC [12, 35]: 0.78 mg/L; MIC [17, 25]: 50 mg/L; MIC ([20]; Burkholderia cepacia, 23, 16 h): 0.78 mg/L
CO/N=C(\C(=O)N[C@@H]1C(=O)N2C(C(=O)O)=C(CSc3nnc(-c4ccc(O)c(O)c4)s3)CS[C@H]12)c1csc(N)n1 [Ex. 25, sodium 7β-[2-(2-aminothiazol-4-yl)-2-methoxviminoacetamido]-3-[5-(3,4-dihydroxyphenyl)-1,3,4-thiadiazol-2-yl]thiomethyl-3-cephem-4-carboxylate] | 0.025 | < 0.006 | 0.2 | 0.025 | 0.39 | < 0.006 | 0.0125 | 0.025 | < 0.006 | – | 0.2 | 0.78 | 0.025 | – | 100 | – | 0.0125 | 1.56 | 0.78 | < 0.006 | MIC [5, 34]: 0.78 mg/L; MIC [12, 35]: 0.78 mg/L; MIC ([18]; read-out: Minimum Inhibitory Concentration (MIC), Ps. aeruginosa AK 109, 10^6 CFU/ml): 0.78 mg/L
